According to patent US9481654B2, “Compositions and methods for inhibition of the JAK pathway” (Rigel Pharmaceuticals, Inc., priority 2006, dated 2016):
pIC50: −log10 of the molar value. Where a name gives a salt, the structure may show the parent alone.

Tested on: IL-4 stimulated CD23 upregulation in human Ramos B cells (JAK-1/JAK-3, Stat-6)
Experiment: Assay for Ramos B-Cell Line Stimulated with IL-4 (CD23 upregulation, FACS)
Assay type: cell-based
Conditions: Table III Example 3
Description: One means of assaying for such inhibition is detection of the effect of the 2,4-pyrimidinediamine compounds on the upregulation of downstream gene products. In the Ramos/IL4 assay, B-cells are stimulated with the cytokine Interleukin-4 (IL-4) leading to the activation of the JAK/Stat pathway through phosphorylation of the JAK family kinases, JAK1 and JAK3, which in turn phosphorylate and activate the transcription factor Stat-6. […] To study the effect of inhibitors (e.g., the 2,4-substituted pyrimindinediamine compounds described herein) on the JAK1 and JAK3 kinases, human Ramos B cells are stimulated with human IL-4. 20 to 24 hours post stimulation, cells are stained for upregulation of CD23 and analyzed using flow cytometry (FACS).
B-cells stimulated with cytokine Interleukin-4 (IL-4) activate the JAK/Stat pathway through phosphorylation of the JAK family kinases, JAK-1 and JAK-3, which in turn phosphorylate and activate the transcription factor Stat-6. […] To study the effect of inhibitors on the JAK family kinases, human Ramos B cells are stimulated with human IL-4.
Cells were maintained at a density of 3.5×10^5. The day before the experiment, Ramos B-cells were diluted to 3.5×10^5 cells/mL to ensure that they were in a logarithmic growth phase.
Cells were spun down and suspended in RPMI with 5% serum. 5×10^4 cells were used per point in a 96-well tissue culture plate. Cells were pre-incubated with compound or DMSO (Sigma-Aldrich, St. Louis, Mo., Cat No. D2650) vehicle control for 1 hour in a 37° C. incubator. Cells were then stimulated with IL-4 (Peprotech Inc., Rocky Hill, N.J., Cat No. 200-04) for a final concentration of 50 units/mL for 20-24 hours. […] Detection was performed using a BD LSR I System Flow Cytometer, purchased from Becton Dickinson Biosciences of San Jose, Calif.

**Q.** With Cc1cnc(Nc2cccc(S(=O)(=O)NC(=O)C3(NC(=O)OC(C)(C)C)CCCC3)c2)nc1Nc1cccc(CNS(=O)(=O)C2CC2)c1 [Compound I-148, N2-[3-N-(Boc-cycloleucine)aminosulfonyl]phenyl-N4-(3-cyclopropylsulfonylaminomethyl)phenyl-5-methyl-2,4-pyrimidinediamine] as the compound, how does the pIC50 read?
**A.** 4.79

**Q.** How did the pIC50 turn out when CCC(=O)NS(=O)(=O)c1cccc(Nc2ncc(C)c(Nc3cccc(CNS(=O)(=O)C4CC4)c3)n2)c1 [Compound I-136, N4-(3-cyclopropylsulfonylaminomethyl)phenyl-5-methyl-N2-(3-propionylaminosulfonyl)phenyl-2,4-pyrimidinediamine] was run?
**A.** 5.79

**Q.** CCC(=O)NS(=O)(=O)c1cc(Nc2ncc(F)c(Nc3ccc(CNS(=O)(=O)C4CC4)cc3)n2)ccc1C [Compound I-59, N4-(4-cyclopropylsulfonylaminomethyl)phenyl-5-fluoro-N2-(4-methyl-3-propionylaminosulfonyl)phenyl-2,4-pyrimidinediamine] was tested. Which pIC50 did it give?
**A.** 5.19

**Q.** With Cc1cnc(Nc2cccc(S(=O)(=O)NC(=O)CN)c2)nc1Nc1cccc(CNS(=O)(=O)C2CC2)c1 [Compound I-131, N2-[3-N-(2-amino-1-oxoethyl)aminosulfonyl]phenyl-N4-(3-cyclopropylsulfonylaminomethyl)phenyl-5-methyl-2,4-pyrimidinediamine] as the compound, how does the pIC50 read?
**A.** 6.25

**Q.** With “N4-[4-(N-cyclopropylsulfonyl-N-propionyl)aminomethyl]phenyl-5-methyl-N2-(4-propionylaminosulfonyl)phenyl-2,4-pyrimidinediamine sodium salt [Compound I-78]” as the compound, how does the pIC50 read?
**A.** 5.97

**Q.** How did the pIC50 turn out when CCC(=O)NS(=O)(=O)c1cc(Nc2ncc(F)c(Nc3ccc(CN(C(=O)CC)S(=O)(=O)C4CC4)cc3)n2)ccc1C [Compound I-60, N4-[4-(N-cyclopropylsulfonyl-N-propionyl)aminomethyl]phenyl-5-fluoro-N2-(4-methyl-3-propionylaminosulfonyl)phenyl-2,4-pyrimidinediamine] was run?
**A.** 5.15

**Q.** Cc1cnc(Nc2cccc(S(=O)(=O)NC(=O)CNC(=O)OC(C)(C)C)c2)nc1Nc1cccc(CNS(=O)(=O)C2CC2)c1 [Compound I-140, N2-{3-N-[2-(t-butoxycarbonylamino)-1-oxoethyl]aminosulfonyl}phenyl-N4-(3-cyclopropylsulfonylaminomethyl)phenyl-5-methyl-2,4-pyrimidinediamine] was tested. Which pIC50 did it give?
**A.** 5.40

**Q.** Cc1cnc(Nc2cccc(S(=O)(=O)Nc3cccnc3)c2)nc1Nc1ccc(CNS(=O)(=O)C2CC2)cc1 [Compound I-174, N4-(4-cyclopropylsulfonylaminomethyl)phenyl-5-methyl-N2-[3-(3-pyridyl)aminosulfonyl]phenyl-2,4-pyrimidinediamine] was tested. Which pIC50 did it give?
**A.** 5.95

**Q.** With Cc1cnc(Nc2cccc(S(=O)(=O)NC(=O)[C@@H](N)Cc3ccccc3)c2)nc1Nc1cccc(CNS(=O)(=O)C2CC2)c1 [Compound I-132, N2-[3-N-(L-Phe)aminosulfonyl]phenyl-N4-(3-cyclopropylsulfonylaminomethyl)phenyl-5-methyl-2,4-pyrimidinediamine hydrogen chloride salt] as the compound, how does the pIC50 read?
**A.** 6.23

**Q.** How did the pIC50 turn out when Cc1ccc(Nc2ncc(F)c(Nc3ccc4c(c3)CN(S(=O)(=O)C3CC3)C4)n2)cc1S(N)(=O)=O [II-4, N2-(3-Aminosulfonyl-4-methylphenyl)-N4-[(2-cyclopropylsulfonyl)-isoindolin-5-yl]-5-fluoro-2,4-pyrimidinediamine] was run?
**A.** 6.14

**Q.** How did the pIC50 turn out when CCCC(=O)NS(=O)(=O)c1cccc(Nc2ncc(C)c(Nc3cccc(CNS(=O)(=O)C4CC4)c3)n2)c1 [Compound I-223, N2-(3-butyrylaminosulfonyl)phenyl-N4-(3-cyclopropylsulfonylaminomethyl)phenyl-5-methyl-2,4-pyrimidinediamine] was run?
**A.** 5.43

**Q.** With NS(=O)(=O)c1ccc(Nc2ncc(F)c(Nc3ccc4c(c3)CN(S(=O)(=O)C3CC3)C4)n2)cc1 [II-6, N2-(4-Aminosulfonyl-phenyl)-N4-[(2-cyclopropylsulfonyl)-isoindolin-5-yl]-5-fluoro-2,4-pyrimidinediamine] as the compound, how does the pIC50 read?
**A.** 6.19

**Q.** CCC(=O)NS(=O)(=O)c1ccc(Nc2ncc(C)c(Nc3ccc(CN(C(=O)CC)S(=O)(=O)C4CC4)cc3)n2)cc1 [Compound I-77, N4-[4-(N-cyclopropylsulfonyl-N-propionyl)aminomethyl]phenyl-5-methyl-N2-(4-propionylaminosulfonyl)phenyl-2,4-pyrimidinediamine] was tested. Which pIC50 did it give?
**A.** 5.91

**Q.** How did the pIC50 turn out when Cc1cnc(Nc2cccc(S(=O)(=O)N[C@H](C(=O)O)C(C)C)c2)nc1Nc1cccc(CNS(=O)(=O)C2CC2)c1 [Compound I-146, N2-[3-N-(L-Val)aminosulfonyl]phenyl-N4-(3-cyclopropylsulfonylaminomethyl)phenyl-5-methyl-2,4-pyrimidinediamine hydrogen chloride salt] was run?
**A.** 4.91

**Q.** How did the pIC50 turn out when CCC(=O)NS(=O)(=O)c1cccc(Nc2ncc(C)c(Nc3cccc(CN(C(=O)CC)S(=O)(=O)C4CC4)c3)n2)c1 [Compound I-93, N4-[3-(N-cyclopropylsulfonyl-N-propionyl)aminomethyl]phenyl-5-methyl-N2-(3-propionylaminosulfonyl)phenyl-2,4-pyrimidinediamine] was run?
**A.** 5.55

**Q.** CCCC(=O)N(COC(C)=O)S(=O)(=O)c1cccc(Nc2ncc(C)c(Nc3cccc(CNS(=O)(=O)C4CC4)c3)n2)c1 [Compound I-225, N2-[3-(N-acetoxymethyl-N-butyryl)aminosulfonyl]phenyl-N4-(3-cyclopropylsulfonylaminomethyl)phenyl-5-methyl-2,4-pyrimidinediamine] was tested. Which pIC50 did it give?
**A.** 6.94

**Q.** How did the pIC50 turn out when CCCC(=O)NS(=O)(=O)c1cccc(Nc2ncc(C)c(Nc3cccc(CN(C(=O)CCC)S(=O)(=O)C4CC4)c3)n2)c1 [Compound I-222, N2-(3-butyrylaminosulfonyl)phenyl-N4-[3-(N-butyryl-N-cyclopropylsulfonyl)aminomethyl]phenyl-5-methyl-2,4-pyrimidinediamine Choline salt] was run?
**A.** 5.52

**Q.** With CC(=O)NS(=O)(=O)c1ccc(Nc2ncc(C)c(Nc3ccc(CN(C(C)=O)S(=O)(=O)C4CC4)cc3)n2)cc1 [Compound I-194, N2-(4-acetamidosulfonyl)phenyl-N4-[4-(N-acetyl-N-cyclopropylsulfonyl)aminomethyl]phenyl-5-methyl-2,4-pyrimidinediamine] as the compound, how does the pIC50 read?
**A.** 5.78

**Q.** With Cc1cnc(Nc2cccc(S(=O)(=O)NC(=O)[C@@H](N)Cc3ccccc3)c2)nc1Nc1cccc(CNS(=O)(=O)C2CC2)c1 [Compound I-134, N2-[3-N-(L-Phe)aminosulfonyl]phenyl-N4-(3-cyclopropylsulfonylaminomethyl)phenyl-5-methyl-2,4-pyrimidinediamine] as the compound, how does the pIC50 read?
**A.** 6.12

Same assay, conditions: Table III Example 3, sodium salt

**Q.** CCC(=O)NS(=O)(=O)c1cccc(Nc2ncc(F)c(Nc3ccc(CNS(=O)(=O)C4CC4)cc3)n2)c1 [Compound I-61, N4-(4-cyclopropylsulfonylaminomethyl)phenyl-5-fluoro-N2-(3-propionylaminosulfonyl)phenyl-2,4-pyrimidinediamine sodium salt] was tested. Which pIC50 did it give?
**A.** 4.72

**Q.** Cc1cnc(Nc2cccc(S(=O)(=O)NC(=O)C(C)C)c2)nc1Nc1cccc(CN(C(=O)C(C)C)S(=O)(=O)C2CC2)c1 [Compound I-200, N4-[3-(N-cyclopropylsulfonyl-N-isobutyryl)aminomethyl]phenyl-N2-(3-isobutyrylaminosulfonyl)phenyl-5-methyl-2,4-pyrimidinediamine sodium salt] was tested. Which pIC50 did it give?
**A.** 5.64

**Q.** CCC(=O)NS(=O)(=O)c1cc(Nc2ncc(F)c(Nc3ccc(CN(C(=O)CC)S(=O)(=O)C4CC4)cc3)n2)ccc1C [Compound I-64, N4-[4-(N-cyclopropylsulfonyl-N-propionyl)aminomethyl]phenyl-5-fluoro-N2-(4-methyl-3-propionylaminosulfonyl)phenyl-2,4-pyrimidinediamine sodium salt] was tested. Which pIC50 did it give?
**A.** 5.37

**Q.** How did the pIC50 turn out when CCCCCC(=O)NS(=O)(=O)c1cccc(Nc2ncc(C)c(Nc3cccc(CN(C(=O)CCCCC)S(=O)(=O)C4CC4)c3)n2)c1 [Compound I-219, N4-[3-(N-cyclopropylsulfonyl-N-hexanoyl)aminomethyl]phenyl-N2-(3-hexanoylaminosulfonyl)phenyl-5-methyl-2,4-pyrimidinediamine sodium salt] was run?
**A.** 5.58

**Q.** How did the pIC50 turn out when CCCC(=O)NS(=O)(=O)c1ccc(Nc2ncc(C)c(Nc3ccc(CN(C(=O)CCC)S(=O)(=O)C4CC4)cc3)n2)cc1 [Compound I-206, N2-(4-butyrylaminosulfonyl)phenyl-N4-[4-(N-butyryl-N-cyclopropylsulfonyl)aminomethyl]phenyl-5-methyl-2,4-pyrimidinediamine sodium salt] was run?
**A.** 6.02

**Q.** How did the pIC50 turn out when CCC(=O)NS(=O)(=O)c1cccc(Nc2ncc(C)c(Nc3cccc(CNS(=O)(=O)C4CC4)c3)n2)c1 [Compound I-137, N4-(3-cyclopropylsulfonylaminomethyl)phenyl-5-methyl-N2-(3-propionylaminosulfonyl)phenyl-2,4-pyrimidinediamine sodium salt] was run?
**A.** 5.72
